Data on five molecules can be found in publication PMC9320521, “Detection of Unprecedented CYP74 Enzyme in Mammal: Hydroperoxide Lyase CYP74C44 of the Bat Sturnira hondurensis” (International Journal of Molecular Sciences, 2022).

The subject of the test is CYP74C44 (ShHPL). Briefly: UV absorbance decrease at […] nm. Type of test: biochemical, Sturnira hondurensis. To be noted: Na phosphate buffer pH 7.0, 25 °C, 5 to 150 μM substrate.
The term Km denotes the concentration of substrate that gives half-maximal velocity. For `CCCCC/C=C\C=C\[C@H](CCCCCCCC(=O)O)OO` [9-HPOD, (9S,10E,12Z)-9-Hydroperoxy-10,12-octadecadienoic], the Km is 46.6 ± 7.2 µM. In the case of `CC/C=C\C/C=C\C=C\[C@H](CCCCCCCC(=O)O)OO` [9-HPOT, (9S,10E,12Z,15Z)-9-hydroperoxy-10,12,15-octadecatrienoic] it was 20.9 ± 5.6 µM; in that of `CCCCC[C@@H](/C=C/C=C\CCCCCCCC(=O)O)OO` [13-HPOD, (9Z,11E,13S)-13-hydroperoxy-9,11-octadecadienoic], 57.9 ± 13.3 µM; in that of `CC/C=C\C[C@@H](/C=C/C=C\CCCCCCCC(=O)O)OO` [13-HPOT, (9Z,11E,13S,15Z)-13-hydroperoxy-9,11,15-octadecatrienoic], 28.4 ± 6.7 µM. Turning to `CC/C=C\C[C@@H](/C=C/C=C\C/C=C\C/C=C\CCCC(=O)O)OO` [15-HPEPE], the Km came out at 8.17 ± 1.6 µM.
